{
  "source": "patent US11479552B2",
  "about": "“Substituted piperidine compounds and their use” (Eisai R&D Management Co., Ltd., priority 2020, dated 2022)",
  "key": {"human OX2R (hOX2R)": {"molecular_target": "human OX2R (hOX2R) (Homo sapiens (Human), UniProt O43614)", "sequence (O43614 whole entry)": "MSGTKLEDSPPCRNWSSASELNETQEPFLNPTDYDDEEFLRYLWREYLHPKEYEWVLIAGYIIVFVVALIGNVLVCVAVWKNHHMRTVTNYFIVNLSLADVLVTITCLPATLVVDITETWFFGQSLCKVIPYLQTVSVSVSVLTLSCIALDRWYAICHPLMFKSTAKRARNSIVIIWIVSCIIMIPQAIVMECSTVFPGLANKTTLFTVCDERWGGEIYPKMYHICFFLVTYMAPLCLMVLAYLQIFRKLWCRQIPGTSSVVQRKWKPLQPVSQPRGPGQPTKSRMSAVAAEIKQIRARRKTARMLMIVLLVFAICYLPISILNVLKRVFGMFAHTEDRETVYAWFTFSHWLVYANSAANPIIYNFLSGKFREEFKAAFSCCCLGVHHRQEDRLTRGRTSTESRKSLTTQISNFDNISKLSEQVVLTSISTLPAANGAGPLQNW", "assay": "Test Example 1-1: Evaluation of activity for OX2R (calcium flux, HEK293 with forced expression)", "assay_type": "cell-based", "conditions": "HEK293 cells expressing hOX2R; intracellular calcium; 10 nM OX-A as 100%; up to 1×10^−7 M", "description": "HEK293 (human embryonic kidney 293) cells with forced expression of human OX1R (hOX1R) or human OX2R (hOX2R) were seeded in a 384-well microplate (Greiner) at 10,000 per well and cultured for 1 day in high-glucose-DMEM (FujiFilm Corp.—Wako Pure Chemical Industries, Ltd.) containing added 10% FBS (Tenno Scientific) and 1% Penicillin-Streptomycin (FujiFilm Corp.—Wako Pure Chemical Industries, Ltd.). After removing the medium, 40 μL of assay buffer (20 mM HEPES (Sigma-Aldrich Japan, KK.), Hanks' balanced salt solution (Gibco), 0.1% BSA (Sigma-Aldrich Japan, KK.), 0.1% Pluronic F-127 (Invitrogen)) containing Calcium 4 dye (Molecular Device Corporation) and 2.5 mM probenecid (Sigma-Aldrich Japan, KK.) were added, and the plate was incubated for 60 minutes. After further adding 20 μL of assay buffer, 20 μL of assay buffer containing the test compound was added and reaction was initiated. Change in intracellular calcium ion concentration during the reaction was measured based on the fluorescence intensity ratio in terms of the fluorescence value with wavelength excitation at 480 nm and detection at 540 nm, using FDSS7000 (Hamamatsu Photonics, K.K.). The test compound was dissolved in DMSO to 10 mM, and diluted with assay buffer to a final concentration of from 3×10^−11 M to 1×10^−7 M (DMSO final concentration of 0.1%). […]"}, "Male C57BL/6NCrl mice": {"system": "Male C57BL/6NCrl mice", "assay": "Test Example 2: Increase in spontaneous movement", "assay_type": "in vivo", "conditions": "orally administered 10 mg/kg, measured 2 hours after administration, control group as 100%", "description": "Similar to increase in body temperature or increase in cardiovascular parameters such as blood pressure, increased movement in mice is one of indicator for wakefulness. In this test example, the alertness effect was evaluated by measuring spontaneous movement of the mice. Male C57BL/6NCrl mice (18-19 weeks old, Charles River Laboratories, Japan Inc., 4 mice in each group) were used for the experiment. Spontaneous movement was measured by using a movement measuring device (VersaMax Oven Field, AccuScan Instruments, Inc.), irradiating infrared rays from the side sections of the measuring cage, and quantifying the number of times that the mice passed through the irradiation. After placing the mice in the measuring cage and conditioning for 3 hours, the compound was orally administered (10 mg/kg). Spontaneous movement was measured 2 hours after administration. The test compound-administered group was administered a solution of the test compound dissolved in 0.1 moL/L hydrochloric acid containing 5% (v/v) DMSO and 5% (v/v) Kolliphor™ EL. For the control group, solvent alone without the test compound was administered to the mice.\nSpontaneous movement was represented as a percentage for the test compound-administered group, with spontaneous movement in the control group as 100%."}, "[1]": {"system": "orexin/ataxin-3 Tg/+ mice", "assay": "Test Example 4: Wake-promoting effect and cataplexy-free state elongation in orexin-deficient mice (EEG/EMG)", "assay_type": "in vivo", "conditions": "oral; for DREM latency: cut-off 4 hours", "description": "The experimental animals used were orexin/ataxin-3 Tg/+ mice (hereunder referred to as “Tg mice”, Ham et al., Neuron, 30,345-54,2001) with a C57BL/6 genetic background. Electroencephalogram and electromyogram measuring electrodes were surgically embedded into 12-week-old mice (±2 weeks) under isoflurane anesthesia. The solvent (0 mg/kg) or a solution of a sample (compound of Example 1 dissolved in the solvent: 0.3, 1 or 3 mg/kg) was orally administered 30 to 15 minutes before lighting was turned off. The solvent used was a 0.1 moL/L hydrochloric acid solution containing 5% (v/v) DMSO and 5% (v/v) Kolliphor™ EL. The electroencephalogram and electromyogram were recorded for about 24 hours, from 1 hour before lighting was turned off. The mice were repeatedly used, with a washout period of 2 days or longer. The electroencephalogram and electromyogram data obtained for each mouse were used to assess the sleep stage every epoch (10 seconds), using sleep analysis software (SleepSign: Kissei Comtec Co., Ltd.), up to a maximum of 4 hours (cut-off value). For the purpose of this experiment, cataplexy-like symptoms were defined as REM sleep appearing immediately after wakefulness (direct transition from wake to REM sleep (DREM)) for a contiguous period of 4 epochs or longer. DREM in mice is an analog of cataplexy (Exp Neurol. 2009; 217:46-54). The time until initial sleep appeared after lighting out for each mouse (sleep for contiguous 8 epochs or longer, excluding DREM)(sleep onset latency) and the time until initial DREM appeared (DREM latency) were measured. The numbers of mice were 14 in the vehicle group and Example 1 compound-administered groups. The sleep onset latency and DREM latency in a vehicle control group and a compound-administered group were compared by a Dunnet-type multiple comparison test following survival time analysis in consideration of the number of experiments and use of the same individuals, with a significance level of 5% at both ends for each."}, "hOX1R": {"molecular_target": "hOX1R (Homo sapiens (Human), UniProt O43613)", "sequence (O43613 whole entry)": "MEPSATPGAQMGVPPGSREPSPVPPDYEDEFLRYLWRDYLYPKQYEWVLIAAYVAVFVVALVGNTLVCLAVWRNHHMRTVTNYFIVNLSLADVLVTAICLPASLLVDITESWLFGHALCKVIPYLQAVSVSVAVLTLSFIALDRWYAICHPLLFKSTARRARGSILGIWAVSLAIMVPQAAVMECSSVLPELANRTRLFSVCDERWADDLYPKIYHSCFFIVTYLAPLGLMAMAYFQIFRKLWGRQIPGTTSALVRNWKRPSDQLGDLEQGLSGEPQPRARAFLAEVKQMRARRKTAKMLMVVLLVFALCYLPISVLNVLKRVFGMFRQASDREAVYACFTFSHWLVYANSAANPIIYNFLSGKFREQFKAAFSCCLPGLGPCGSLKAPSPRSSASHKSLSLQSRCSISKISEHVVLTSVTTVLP", "assay": "Test Example 1-2: Evaluation of activating activity for OX1R (calcium flux, HEK293 with forced expression)", "assay_type": "cell-based", "conditions": "HEK293 cells expressing hOX1R; intracellular calcium; 30 nM OX-A as 100%; up to 1×10^−5 M", "description": "(§1) Human Embryonic Kidney cells 293 (HEK293) cells with forced expression of hOX1R or hOX2R were seeded in a 384-well microplate (Greiner) at 10,000 per well and cultured for 1 day in high-glucose-DMEM (FujiFilm Corp.—Wako Pure Chemical Industries, Ltd.) containing added 10% FBS (Thermo Scientific) and 1% Penicillin-Streptomycin (FujiFilm Corp.—Wako Pure Chemical Industries, Ltd.). After removing the medium, 30 μL of assay buffer (20 mM HEPES (Sigma-Aldrich Japan, KK.), Hank's balanced salt solution (Gibco), 0.1% BSA (Sigma-Aldrich Japan, KK.), 0.1% Pluronic F-127 (Invitrogen)) containing Calcium 4 dye (Molecular Device Corporation) and 2.5 mM probenecid (Sigma-Aldrich Japan, KK.) were added, and the mixture was incubated for 60 minutes. A 30 μL portion of assay buffer containing the test compound was added and reaction was initiated. Change in intracellular calcium ion concentration by the reaction was measured based on the fluorescence intensity ratio in terms of the fluorescence value with […], using FDSS7000 (Hamamatsu Photonics, K.K.). The test compound was dissolved in DMSO to 10 mM, and diluted with assay buffer to a final concentration of from 3×10^−11 M to 1×10^−5 M (DMSO final concentration of 0.1%). The EC50 value was determined from the fluorescence value with addition of the test compound at different concentrations, with the fluorescence value of the well with compound-free buffer added as 0%, and the fluorescence value of the well with 30 nM OX-A (Peptide Research Lab) as 100%."}, "hOX2R": {"molecular_target": "hOX2R (Homo sapiens (Human), UniProt O43614)", "sequence (O43614 whole entry)": "as the sequence (O43614 whole entry) above", "assay": "Test Example 1-2: Evaluation of activating activity for OX2R (calcium flux, HEK293 with forced expression)", "assay_type": "cell-based", "conditions": "HEK293 cells expressing hOX2R; intracellular calcium; 30 nM OX-A as 100%; up to 1×10^−5 M", "description": "as §1"}, "[2]": {"system": "C57BL/6 line wild type (WT) male mice", "assay": "Test Example 3: Wake-promoting effect by oral administration to wild type mice (EEG/EMG)", "assay_type": "in vivo", "description": "The experimental animals used were C57BL/6 line wild type (WT) male mice. Electroencephalogram and electromyogram measuring electrodes were surgically embedded into 13-week-old mice under isoflurane anesthesia. The solvent (0 mg/kg) or a solution of the compound of Example 1 dissolved in the solvent (1, 3 or 10 mg/kg) was orally administered 30 to 15 minutes before lighting was turned off. The solvent used was a 0.1 moL/L hydrochloric acid solution containing 5% (v/v) DMSO and 5% (v/v) Kolliphor™ EL. The electroencephalogram and electromyogram were recorded for about 24 hours, from 1 hour before lighting was turned off. The mice were repeatedly used, with a washout period of 2 days or longer. The electroencephalogram and electromyogram data obtained for each mouse were used to assess the sleep stage every epoch (10 seconds), using sleep analysis software (SleepSign: Kissei Comtec Co., Ltd.). […] Using 16 mice in each administered group, the sleep onset latency in a solvent-administered group (control group) and an Example 1 compound-administered group were compared by a Dunnet-type multiple comparison test following survival time analysis in consideration of the number of experiments and use of the same individuals, with a significance level of 5% at both ends for each."}},
  "data": [
    {"smiles": "CO[C@@H]1CN(c2ncc(F)cn2)CC[C@@H]1[C@@H]1C[C@H]2CC[C@@H](C1)N2[C@@H](C(N)=O)C1CC1", "note": "[Example 1, (R)-2-cyclopropyl-2-((1R,3S,5S)-3-((3S,4R)-1-(5-fluoropyrimidin-2-yl)-3-methoxypiperidin-4-yl)-8-azabicyclo[3.2.1]octan-8-yl)acetamide]", "values": [
      {"measurement": "EC50", "setting": "human OX2R (hOX2R)", "result": 0.99, "unit": "nM"},
      {"measurement": "Spontaneous movement (% of Control)", "setting": "Male C57BL/6NCrl mice", "result": "865 % of Control"},
      {"measurement": "sleep onset latency", "setting": "[1]; 0.3 mg/kg", "result": 0.31, "unit": "h"},
      {"measurement": "DREM latency", "setting": "[1]; 0.3 mg/kg", "result": 1.50, "unit": "h"},
      {"measurement": "sleep onset latency", "setting": "[1]; 1 mg/kg", "result": 0.64, "unit": "h"},
      {"measurement": "DREM latency", "setting": "[1]; 1 mg/kg", "result": 2.26, "unit": "h"},
      {"measurement": "sleep onset latency", "setting": "[1]; 3 mg/kg", "result": 2.42, "unit": "h"},
      {"measurement": "DREM latency", "setting": "[1]; 3 mg/kg", "result": 4.00, "unit": "h"},
      {"measurement": "EC50", "setting": "hOX1R", "result": 4700, "unit": "nM"},
      {"measurement": "EC50", "setting": "hOX2R", "result": 2.3, "unit": "nM"},
      {"measurement": "sleep onset latency", "setting": "[2]; 1 mg/kg", "result": 0.28, "unit": "h"},
      {"measurement": "sleep onset latency", "setting": "[2]; 3 mg/kg", "result": 0.44, "unit": "h"},
      {"measurement": "sleep onset latency", "setting": "[2]; 10 mg/kg", "result": 2.07, "unit": "h"}
    ]},
    {"smiles": "CO[C@@H]1CN(c2ncc(F)cn2)CC[C@@H]1[C@@H]1C[C@H]2CC[C@@H](C1)N2[C@@H](C(N)=O)C(C)C", "note": "[Example 2, (R)-2-((1R,3S,5S)-3-((3S,4R)-1-(5-fluoropyrimidin-2-yl)-3-methoxypiperidin-4-yl)-8-azabicyclo[3.2.1]octan-8-yl)-3-methylbutaneamide]", "values": [
      {"measurement": "Spontaneous movement (% of Control)", "setting": "Male C57BL/6NCrl mice", "result": "253 % of Control"}
    ]},
    {"smiles": "CCO[C@@H]1CN(c2ncc(Cl)cn2)CC[C@@H]1[C@@H]1C[C@H]2CC[C@@H](C1)N2[C@@H](C(N)=O)C1CC1", "note": "[Example 3, (R)-2-((1R,3S,5S)-3-((3S,4R)-1-(5-chloropyrimidin-2-yl)-3-ethoxypiperidin-4-yl)-8-azabicyclo[3.2.1]octan-8-yl)-2-cyclopropyl acetamide]", "values": [
      {"measurement": "EC50", "setting": "hOX1R", "result": 1400, "unit": "nM"},
      {"measurement": "EC50", "setting": "hOX2R", "result": 4.3, "unit": "nM"}
    ]},
    {"smiles": "C[C@H]1C[C@@H]([C@@H]2C[C@H]3CC[C@@H](C2)N3[C@@H](C(N)=O)C2CC2)CCN1c1ncc(F)cn1", "note": "[Example 4, (R)-2-cyclopropyl-2-((1R,3S,5S)-3-((2S, 4S)-1-(5-fluoropyrimidin-2-yl)-2-methylpiperidin-4-yl)-8-azabicyclo[3.2.1]octan-8-yl)acetamide]", "values": [
      {"measurement": "EC50", "setting": "hOX1R", "result": 3900, "unit": "nM"},
      {"measurement": "EC50", "setting": "hOX2R", "result": 4.4, "unit": "nM"}
    ]}
  ]
}
